Test results taken from paper PMC4467398, “Preclinical antitumor activity of ST7612AA1: a new oral thiol-based histone deacetylase (HDAC) inhibitor” (Oncotarget, 2014).

Columns and labels:
Breast cancer MDA-MB436 = assay: In vitro proliferation assay (sulphorodamine B); type: cell-based; conditions: Homo sapiens, MDA-MB-436, 72 h, mean ± S.E.M.
[1] = tested on: cell lines derived from epithelial cancers (lung, breast, colon, ovarian) and from leukemias and lymphomas; assay: In vitro proliferation assay, first broad panel (summary); type: cell-based; conditions: first broad panel of human tumor cell lines; read-out: IC50 values, range over the panel
Description: Anti-proliferative activity was first assessed on a panel of cell lines derived from solid tumors and hematological cancers and then on a large panel of cell lines derived from mature B-cell lymphomas. […] Lymphoma cells were seeded in 96-wells tissue culture plates in complete medium and were exposed to increasing concentrations of ST7612AA1 for 48 or 72 h; the anti-proliferative activity was assessed using 3-(4,5-dimethylthiazol-2-yl)-2,5-diphenyltetrazolium bromide (MTT). The drug potency was evaluated by means of the “ALLFIT” computer program and defined as IC50 (drug concentration required for 50% inhibition of cell survival).

[2] = tested on: Chronic myeloid leukemia K562; assay: In vitro proliferation assay (sulphorodamine B); type: cell-based; conditions: Homo sapiens, 72 h, mean ± S.E.M.
Ovarian cancer SKOV-3 = assay: In vitro proliferation assay (sulphorodamine B); type: cell-based; conditions: Homo sapiens, SK-OV-3, 72 h, mean ± S.E.M.
[3] = tested on: NSCLC NCI-H1975 xenograft; assay: In vivo xenograft model, oral ST7612AA1; design: species or system nude mice; conditions: 60 mg/10 mL/kg oral, Qdx5/wx2w
Description: (§1) Experiments on solid tumor and acute leukemia in vivo models were carried out at Sigma-Tau (Rome, Italy) using female athymic nude mice, 5-6 weeks-old (Harlan Laboratories, Udine, IT). Mice were maintained in laminar flow rooms with constant temperature and humidity in according to the NIH guidelines. The following human tumor xenograft models were used for antitumor activity studies: HCT116 derived from colon carcinoma), MV4;11 from acute myeloid leukaemia (AML), SKOV-3 from ovarian carcinoma, and NCI-H1975 from non-small cell lung cancer (NSCLC). Exponentially growing tumor cells were s.c. inoculated (5×10^6/mouse) in the right flank of nude mice. Groups of eight mice/group were employed to assess antitumor activity. MDA-MB436 breast carcinoma (3×10^6 cells/0.1 mL of M199/Matrigel GFR 50:50, vol/vol solution) was inoculated in mammary fat pad (mfp). Drug treatments were started from 3 to 11 days after tumor injection, depending on the tumor growth of the xenografted cancer model. ST7612AA1 was given daily for five days per week (qdx5/w). Tumor growth was followed by measurements of tumor diameters with a Vernier caliper. Tumor volume (TV) was calculated using the formula: TV (mm^3) = [d^2 x D]/2, where d and D are the shortest and the longest diameter, respectively. The efficacy of the drug treatment was assessed as: TV inhibition percentage (TVI%) in treated versus control mice, calculated as: TVI%=100-(mean TV treated/mean TV control x100). When tumors reached a volume of 500-1000 mm^3, mice were sacrificed by cervical dislocation. To examine the possible toxicity of treatment, body weight was recorded throughout the study. BWL% (body weight loss) was calculated as 100 – (mean BWdayx/mean BWday1x100), where day 1 is the first day of treatment and day x is any day after (maximum BWL%). DT as doubling time of control tumors was also evaluated.

[4] = tested on: Ovarian cancer SKOV-3 xenograft; assay: In vivo xenograft model, oral ST7612AA1; design: species or system nude mice; conditions: 60 mg/10 mL/kg oral, Qdx5/wx4w
Description: as §1

[5] = tested on: Acute myeloid leukemia MV4;11 xenograft; assay: In vivo xenograft model, oral ST7612AA1; design: species or system nude mice; conditions: 60 mg/10 mL/kg oral, Qdx5/wx3w
Description: as §1

[6] = tested on: Colon cancer HCT-116 xenograft; assay: In vivo xenograft model, oral ST7612AA1; design: species or system nude mice; conditions: 60 mg/10 mL/kg oral, Qdx5/wx3w
Description: as §1

[7] = tested on: Breast cancer MDA-MB436 xenograft; assay: In vivo xenograft model, oral ST7612AA1; design: species or system nude mice; conditions: 60 mg/10 mL/kg oral, Qdx5/wx4w
Description: as §1

[8] = tested on: acetylation of histone H4 in NCI-H460 NSCLC cells; assay: Western blot with densitometry, histone H4 acetylation; type: cell-based, human; conditions: for Acetyl H4/H4: vehicle 0,0274
Description: For assessing the in vitro effect of ST7612AA1 on acetylation of α-tubulin and histones, NSCLC cells were treated with the test compound at various concentrations (dose-response curve). SAHA 5 μM was used as reference inhibitor. Protein extraction, separation and immunoblotting were performed as previously described. Immunoreactive bands were finally subjected to densitometry analysis by a phosphoimaging system (STORM, Molecular Dynamics), and then the IC50 values were calculated by the “ALLFIT” computer program. The antibodies used are listed in Supplementary Table 2.

Ovarian cancer A2780 = assay: In vitro proliferation assay (sulphorodamine B); type: cell-based; conditions: Homo sapiens, 72 h, mean ± S.E.M.
lymphoma cell lines = assay: Detection of apoptotic cells (Annexin V-FITC, flow cytometry); type: cell-based, human; conditions: 250 nM, 72 hrs; eight lymphoma cell lines
Description: Apoptosis was assessed, on cells treated with DMSO or different doses of ST7612AA1, by Annexin V-FITC apoptosis detection kit (BD Biosciences), according to the manufacturer's recommendations, on a FACScan flow cytometer (BD Biosciences).

[9] = tested on: Acute myeloid leukemia MV4;11; assay: In vitro proliferation assay (sulphorodamine B); type: cell-based; conditions: Homo sapiens, 72 h, mean ± S.E.M.
Breast cancer MDA-MB231 = assay: In vitro proliferation assay (sulphorodamine B); type: cell-based; conditions: Homo sapiens, MDA-MB-231, 72 h, mean ± S.E.M.

With `CC(=O)SCCCCC[C@H](NC(=O)[C@H]1CCC(=O)N1)C(=O)Nc1ccccc1` [ST7612AA1] as the compound, how does the IC50 (Breast cancer MDA-MB436) read?
Its IC50 is 180 ± 10 nM.

And the IC50 [1]?
Its IC50 is 43 to 500 nM.

And the IC50 [2]?
Its IC50 is 190 ± 20 nM.

And the IC50 (Ovarian cancer SKOV-3)?
Its IC50 is 380 nM.

What about the BWL% max ([3]; maximum body weight loss) of the same compound?
The BWL% max was 4%.

What about the Lethal toxicity ([3]; mice dead from toxicity/total) of the same compound?
The Lethal toxicity was 0/8.

And the BWL% max ([4]; maximum body weight loss)?
The BWL% max was 1%.

What about the Lethal toxicity ([4]; mice dead from toxicity/total) of the same compound?
Its Lethal toxicity is 0/8.

And the BWL% max ([5]; maximum body weight loss)?
Its BWL% max is 4%.

What about the Lethal toxicity ([5]; mice dead from toxicity/total) of the same compound?
The Lethal toxicity was 0/8.

And the BWL% max ([6]; maximum body weight loss)?
The BWL% max was 1%.

And the Lethal toxicity ([6]; mice dead from toxicity/total)?
Its Lethal toxicity is 0/8.

What about the BWL% max ([7]; maximum body weight loss) of the same compound?
The BWL% max was 4%.

What about the Lethal toxicity ([7]; mice dead from toxicity/total) of the same compound?
Its Lethal toxicity is 0/8.

What about the “Acetyl H4/H4” value ([8]; 0,2 µM, NCI-H460) of the same compound?
Its value is 0,3352.

And the “Acetyl H4/H4” value ([8]; 0,04 µM, NCI-H460)?
Its value is 0,3092.

What about the “Acetyl H4/H4” value ([8]; 1 µM, NCI-H460) of the same compound?
Its value is 0,3757.

What about the IC50 ([8]; Homo sapiens, NCI-H460, 3 h exposure, Western blot densitometry, read-out: IC50 for increasing the acetylation of histone H4) of the same compound?
Its IC50 is 4.8 nM.

What about the “fold more potent in increasing acetylation of histone H4 than of tubulin” value ([8]; NCI-H460) of the same compound?
Its value is 40 fold.

What about the IC50 (Ovarian cancer A2780) of the same compound?
The IC50 was 43 ± 10 nM.

What about the “apoptosis (Annexin V positive cells)” value (lymphoma cell lines) of the same compound?
The value was “moderate apoptosis in three out of eight lymphoma cell lines”.

What about the IC50 [9] of the same compound?
Its IC50 is 190 ± 20 nM.

What about the IC50 (Breast cancer MDA-MB231) of the same compound?
The IC50 was 230 nM.
